How the values were obtained:
[1] = guidance for hydrocortisone equivalents; actual potency may vary slightly; cited from earlier work
[2] = test system: Hodgkin's Disease (HD), CD30 positive lymphoma; assay: Combination therapy of anti-CD30 antibody and glucocorticosteroid in patients with Hodgkin's Disease; type: in vivo, human
Procedure: The patient, diagnosed with HD, received 5 mg/kg anti-CD30 antibody 5F11 by i.v. infusion once per day per week for 3 weeks. The week after completing antibody therapy (i.e., fourth week from start of therapy), the patient received 40 mg oral dexamethasone once per day for 2 days; one month later the patient received another 40 mg oral dexamethasone once per day for 4 days; two weeks later the patient received a third regimen of 40 mg oral dexamethasone once per day for 4 days.
Patient 2, diagnosed with HD, received 15 mg/kg anti-CD30 antibody 5F11 by i.v. infusion once per day per week for 3 weeks. At the start of week 3 of antibody therapy, the patient received one dose of 50 mg oral dexamethasone. After completion of antibody therapy (i.e., at the beginning of week four following the start of therapy), the patient received one dose of 100 mg oral prednisolone.
Patient 4, diagnosed with HD, received 1 mg/kg anti-CD30 antibody […] by i.v. infusion once per day per week for 3 weeks. On the second day of week 1 after beginning therapy, the patient received 40 mg oral dexamethasone once per day for 4 days, followed by no steroid therapy for 10 days. Thus, a dexamethasone cycle was completed over a 14 day period. For this patient, 8 cycles of dexamethasone therapy were completed over a period of 4 months.

[3] = test system: T cell lymphoma, CD30 positive lymphoma; assay: Combination therapy of anti-CD30 antibody and glucocorticosteroid in a patient with T cell lymphoma; type: in vivo, human; conditions: Patient 3, T cell lymphoma; 40 mg oral dexamethasone daily for 4 days, then 50 mg oral prednisolone daily for 20 days; 15 mg/kg 5F11 i.v. once per week for 3 weeks from second week
Procedure: Patient 3, diagnosed with T cell lymphoma, received 40 mg oral dexamethasone once per day for 4 days. On day 5, dexamethasone treatment ceased and 50 mg oral prednisolone was administered once per day for 20 days. At the beginning of the second week of steroid therapy, antibody therapy was initiated by administering 15 mg/kg anti-CD30 antibody 5F11 by i.v. infusion once per day per week for 3 weeks.

[4] = test system: ALCL and various HD-derived cell lines; conditions: in vitro and in vivo; Borchmann et al., Blood 2003; cited from earlier work

Molecule	Relative potency in mg to hydrocortisone [1]	other results
C[C@]12CCC(=O)C=C1CC[C@@H]1[C@@H]2[C@@H](O)C[C@@]2(C)[C@H]1CC[C@]2(O)C(=O)CO [Cortisol]	1.25	
C[C@]12CCC(=O)C=C1CC[C@@H]1[C@@H]2C(=O)C[C@@]2(C)[C@H]1CC[C@]2(O)C(=O)CO [Cortisone]	0.8	
C[C@]12CCC(=O)C=C1CC[C@@H]1[C@@H]2[C@@H](O)C[C@@]2(C)[C@H]1CC[C@]2(O)C(=O)CO [Hydrocortisone]	1	
C[C@]12C=CC(=O)C=C1CC[C@@H]1[C@@H]2[C@@H](O)C[C@@]2(C)[C@H]1CC[C@]2(O)C(=O)CO [Prednisolone]	4	
C[C@]12C=CC(=O)C=C1CC[C@H]1[C@@H]3C[C@@H](O)[C@](O)(C(=O)CO)[C@@]3(C)C[C@H](O)[C@@]12F [Triamcinolone]	5	
5F11: fully human anti-CD30 monoclonal antibody; VH SEQ ID NO: 10, VL SEQ ID NO: 12; VH 4-34 and VK L15 (antibody, chains of the INN, looked up, V domains shown, fully human anti-CD30 monoclonal antibody; VH 4-34 and VK L15) VH: QVQLQQWGAGLLKPSETLSLTCAVYGGSFSAYYWSWIRQPPGKGLEWIGDINHGGGTNYNPSLKSRVTISVDTSKNQFSLKLNSVTAADTAVYYCASLTAYWGQGSLVTVSS VL: DIQMTQSPTSLSASVGDRVTITCRASQGISSWLTWYQQKPEKAPKSLIYAASSLQSGVPSRFSGSGSGTDFTLTISSLQPEDFATYYCQQYDSYPITFGQGTRLEIK		clinical response ([2]; Patient 1, HD, 5 mg/kg 5F11 i.v. once per week for 3 weeks, then 40 mg oral dexamethasone once per day for 2 days, 4 days and 4 days (three regimens)): partial response; clinical response ([2]; Patient 2, HD, 15 mg/kg 5F11 i.v. once per week for 3 weeks, one dose 50 mg oral dexamethasone at week 3, one dose 100 mg oral prednisolone at week 4): partial response, which improved to complete a response; clinical response ([2]; Patient 4, HD, 1 mg/kg antibody i.v. once per week for 3 weeks, 8 cycles of 40 mg oral dexamethasone daily for 4 days per 14 days over 4 months): partial response; clinical response [3]: complete response; efficacy against ALCL and various HD-derived cell lines [4]: shown efficacy
